The results in this text go back to US20090239841A1, “Diaryl Ureas as CB1 Antagonists” (priority 2004, published 2009).

In the first assay the target is T1, hCB1 (Homo sapiens, UniProt P21554).
T1 construct: made in house; host or cells: Sf9 insect cells (baculovirus), P2 membranes
T1 sequence (P21554 whole entry): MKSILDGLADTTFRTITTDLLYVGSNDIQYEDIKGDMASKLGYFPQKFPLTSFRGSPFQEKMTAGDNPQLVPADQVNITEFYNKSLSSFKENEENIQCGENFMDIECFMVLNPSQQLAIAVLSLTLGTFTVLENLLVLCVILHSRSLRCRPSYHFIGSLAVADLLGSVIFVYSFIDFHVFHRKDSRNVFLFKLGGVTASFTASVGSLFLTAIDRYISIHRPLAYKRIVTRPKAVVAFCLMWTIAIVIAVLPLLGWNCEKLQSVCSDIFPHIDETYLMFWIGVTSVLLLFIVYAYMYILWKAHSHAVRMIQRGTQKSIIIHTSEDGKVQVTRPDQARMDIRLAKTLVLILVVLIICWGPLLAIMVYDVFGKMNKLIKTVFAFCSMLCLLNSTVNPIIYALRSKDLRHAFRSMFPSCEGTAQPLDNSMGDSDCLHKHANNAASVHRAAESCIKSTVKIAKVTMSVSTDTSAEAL
Nature of the assay: Agonist-induced GTP binding (GTPγ35S) assay at CB1, Example 8. It is filed as biochemical. Conditions: IC50 at CB1, determined as described in Example 8; read-out: IC50. Summed up:
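Antagonism read as inhibition of 1 nM CP55,940-stimulated GTPγ35S ([…]) binding, compounds at 10^−10 to 10^−5 M. Baculovirus-infected Sf9 membranes bearing hCB1 plus G-protein subunits, 60 min room-temperature incubation with 5 μM GDP. Filtration and scintillation counting; data as percent over basal.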
Take `CC(=O)c1cccc(NC(=O)Nc2cccc(OC(C)C)c2)c1` [Compound 419, 1-(3-acetylphenyl)-3-(3-isopropoxyphenyl)urea]: the IC50 is under 2000 nM.
As to `CCOc1cccc(NC(=O)Nc2ccc(C)cc2)c1` [Compound 354, 1-(3-ethoxyphenyl)-3-(4-methylphenyl)urea], the IC50 was under 2000 nM.
Same read-out and setting: the value for `Cc1ccc(NC(=O)Nc2cccc(C#N)c2)cc1F` [Compound 448, 1-(3-cyanophenyl)-3-(3-fluoro-4-methylphenyl)urea] was under 2000 nM; that for `CCOc1cccc(NC(=O)Nc2ccc(F)cc2)c1` [Compound 356, 1-(3-ethoxyphenyl)-3-(4-fluorophenyl)urea] was under 2000 nM.
On the same count and under the same terms, the value for `CCOc1ccc(NC(=O)Nc2ccc(OCC#N)cc2)cc1` [Compound 590, 1-[4-(cyanomethoxy)phenyl]-3-(4-ethoxyphenyl)urea] was under 2000 nM.
As for `Cc1ccc(NC(=O)Nc2ccc(-n3cnc(Cl)c3Cl)cc2)cc1` [Compound 320, 1-[4-(4,5-dichloro-1H-imidazol-1-yl)phenyl]-3-(4-methylphenyl)urea], the IC50 was under 2000 nM.
With `CCc1cccc(NC(=O)Nc2cccc(OC(F)F)c2)c1` [Compound 406, 1-[3-(difluoromethoxy)phenyl]-3-(3-ethylphenyl)urea], the IC50 was under 2000 nM.
The same measure, in the same setting: the value for `COCc1ccc(NC(=O)Nc2cccc(F)c2)cc1` [Compound 360, 1-(3-fluorophenyl)-3-[4-(methoxymethyl)phenyl]urea] was under 2000 nM; that for `CC(=O)c1ccc(NC(=O)Nc2ccc(F)c(F)c2)cc1` [Compound 452, 1-(4-acetylphenyl)-3-(3,4-difluorophenyl)urea] was under 2000 nM; that for `Cc1ccc(NC(=O)Nc2ccc(C(=O)OC(C)C)cc2)cc1F` [Compound 740, isopropyl 4-({[(3-fluoro-4-methylphenyl)amino]carbonyl}amino)benzoate] was under 2000 nM.
The same measure, in the same setting: the value for `CCOC(=O)c1ccc(NC(=O)Nc2ccccc2Br)cc1` [Compound 764, ethyl 4-({[(2-bromophenyl)amino]carbonyl}amino)benzoate] was under 2000 nM; that for `CCCOc1ccc(NC(=O)Nc2ccc(OC)cc2)cc1` [Compound 547, 1-(4-methoxyphenyl)-3-(4-propoxyphenyl)urea] was under 2000 nM.
As to `COc1cccc(NC(=O)Nc2ccc(C)c(F)c2)c1` [Compound 614, 1-(3-fluoro-4-methylphenyl)-3-(3-methoxyphenyl)urea], the IC50 was under 2000 nM.
Take `CCc1ccc(NC(=O)Nc2ccc(CC#N)cc2)cc1` [Compound 483, 1-[4-(cyanomethyl)phenyl]-3-(4-ethylphenyl)urea]: the IC50 was under 2000 nM.
For `COc1cccc(NC(=O)Nc2ccc(OCC#N)cc2)c1` [Compound 588, 1-[4-(cyanomethoxy)phenyl]-3-(3-methoxyphenyl)urea], the IC50 was under 2000 nM.
On the same count and under the same terms, the value for `CCCc1ccc(NC(=O)Nc2ccc(C#N)cc2)cc1` [Compound 349, 1-(4-cyanophenyl)-3-(4-propylphenyl)urea] was under 2000 nM; that for `CCc1ccc(NC(=O)Nc2cccc(CC)c2)cc1` [Compound 329, 1-(3-ethylphenyl)-3-(4-ethylphenyl)urea] was under 2000 nM; that for `COCc1ccc(NC(=O)Nc2cccc(C(C)=O)c2)cc1` [Compound 414, 1-(3-acetylphenyl)-3-[4-(methoxymethyl)phenyl]urea] was under 2000 nM.
With `CCCc1ccc(NC(=O)Nc2ccc(OC(F)(F)F)cc2)cc1` [Compound 519, 1-(4-propylphenyl)-3-[4-(trifluoromethoxy)phenyl]urea], the IC50 is under 2000 nM.
Still for that read-out and setting: the value for `CCC(=O)c1ccc(NC(=O)Nc2cccc(Cl)c2)cc1` [Compound 493, 1-(3-chlorophenyl)-3-(4-propionylphenyl)urea] was under 2000 nM.
With `CC(C)Oc1cccc(NC(=O)Nc2cccc(Cl)c2)c1` [Compound 400, 1-(3-chlorophenyl)-3-(3-isopropoxyphenyl)urea], the IC50 was under 2000 nM.
Regarding `CCCOc1ccc(NC(=O)Nc2ccc(OC(F)(F)F)cc2)cc1` [Compound 535, 1-(4-propoxyphenyl)-3-[4-(trifluoromethoxy)phenyl]urea], the IC50 is under 2000 nM.
Same read-out and setting: the value for `COCc1ccc(NC(=O)Nc2cccc(Cl)c2)cc1` [Compound 394, 1-(3-chlorophenyl)-3-[4-(methoxymethyl)phenyl]urea] was under 2000 nM; that for `COC(=O)c1ccc(NC(=O)Nc2ccc(CCO)cc2)cc1` [Compound 752, methyl 4-[({[4-(2-hydroxyethyl)phenyl]amino}carbonyl)amino] benzoate] was under 2000 nM; that for `CCc1ccc(NC(=O)Nc2cccc(OC(F)F)c2)cc1` [Compound 407, 1-[3-(difluoromethoxy)phenyl]-3-(4-ethylphenyl)urea] was under 2000 nM.
`CCOc1cccc(NC(=O)Nc2cccc(F)c2)c1` [Compound 355, 1-(3-ethoxyphenyl)-3-(3-fluorophenyl)urea]: the 50% inhibitory concentration (IC50) is under 2000 nM.

Still in this assay, the particulars now being: Table I; IC50 at CB1, GTP binding with 1 nM CP55,940; read-out: IC50.
For the compound `CCc1ccc(NC(=O)Nc2ccc(CO)cc2)cc1` [Compound 28, N-(4-ethylphenyl)-N′-[4-(hydroxymethyl)phenyl]urea], the 50% inhibitory concentration (IC50) was under 2000 nM.
Still for that read-out and setting: the value for `CCCc1ccc(NC(=O)Nc2ccc(C)cc2)cc1` [Compound 39, N-(4-methylphenyl)-N′-(4-propylphenyl)urea] was under 2000 nM.
Same read-out and setting: the value for `Cc1cccc(NC(=O)Nc2ccc(OC(F)F)cc2)c1` [Compound 18, N-[4-(difluoromethoxy)phenyl]-N′-(3-methylphenyl)urea] was under 2000 nM; that for `O=C(Nc1ccc(OC(F)F)cc1)Nc1cccc(OCCO)c1` [Compound 14, N-[4-(difluoromethoxy)phenyl]-N′-[3-(2-hydroxyethoxy)phenyl]urea] was under 2000 nM.

The same assay, now with this note: Table II; IC50 at CB1, GTP binding with 1 nM CP55,940; read-out: IC50.
Regarding `CC(=O)c1ccc(NC(=O)Nc2cccc(OC(F)F)c2)cc1` [Compound 286, N-(4-acetylphenyl)-N′-[3-(difluoromethoxy)phenyl]urea], the half-inhibitory concentration (IC50) was under 2000 nM.
Regarding `COc1ccc(NC(=O)Nc2ccc(OC(F)F)cc2)cc1OC1CCCC1` [Compound 84, N-[3-(cyclopentyloxy)-4-methoxyphenyl]-N′-[4-(difluoromethoxy)phenyl]urea], the 50% inhibitory concentration (IC50) is under 2000 nM.
In the case of `O=C(Nc1ccc(Oc2ccccc2)cc1)Nc1ccc(OC(F)F)cc1` [Compound 86, N-[4-(difluoromethoxy)phenyl]-N′-(4-phenoxyphenyl)urea], the IC50 was under 2000 nM.
In the case of `CC(=O)c1ccc(NC(=O)Nc2cccc(OC(C)C)c2)cc1` [Compound 278, N-(4-acetylphenyl)-N′-(3-isopropoxyphenyl)urea], the IC50 was under 2000 nM.
The same measure, in the same setting: the value for `O=C(Nc1ccc(OC(F)F)cc1)Nc1ccc(S(=O)(=O)N2CCCCC2)cc1` [Compound 110, N-[4-(difluoromethoxy)phenyl]-N′-[4-(piperidin-1-ylsulfonyl)phenyl]urea] was under 2000 nM; that for `CC(C)Oc1cccc(NC(=O)Nc2ccc(F)cc2)c1` [Compound 212, N-(4-fluorophenyl)-N′-(3-isopropoxyphenyl)urea] was under 2000 nM; that for `COc1ccc(NC(=O)Nc2ccc(Cl)cc2)cc1` [Compound 229, N-(4-chlorophenyl)-N′-(4-methoxyphenyl)urea] was under 2000 nM.
Same read-out and setting: the value for `O=C(Nc1ccc(OC(F)F)cc1)Nc1cc(C2CC2)n[nH]1` [Compound 106, N-(3-cyclopropyl-1H-pyrazol-5-yl)-N′-[4-(difluoromethoxy)phenyl]urea] was under 2000 nM; that for `O=C(Nc1ccc(OC(F)F)cc1)Nc1cccc(-c2cccnc2)c1` [Compound 63, N-[4-(difluoromethoxy)phenyl]-N′-(3-pyridin-3-ylphenyl)urea] was under 2000 nM; that for `O=C(Nc1ccc(OC(F)F)cc1)Nc1cnc2ccccc2c1` [Compound 126, N-[4-(difluoromethoxy)phenyl]-N′-quinolin-3-ylurea] was under 2000 nM.
Still for that read-out and setting: the value for `CCOC(=O)c1cccc(NC(=O)Nc2ccc(OC(F)F)cc2)c1` [Compound 148, ethyl 3-[({[4-(difluoromethoxy)phenyl]amino}carbonyl)amino]benzoate] was under 2000 nM; that for `CS(=O)(=O)N1CCc2cc(NC(=O)Nc3ccc(OC(F)F)cc3)ccc21` [Compound 109, N-[4-(difluoromethoxy)phenyl]-N′-[1-(methylsu1fonyl)-2,3-dihydro-1H-indol-5-yl]urea] was under 2000 nM; that for `CC(=O)c1ccc(NC(=O)Nc2ccc(Cl)cc2)cc1` [Compound 192, N-(4-acetylphenyl)-N′-(4-chlorophenyl)urea] was under 2000 nM.
As to `Cc1ccc(NC(=O)Nc2cc3ccccc3c(Br)n2)cc1` [Compound 170, N-(1-bromoisoquinolin-3-yl)-N′-(4-methylphenyl)urea], the IC50 is under 2000 nM.
On the same count and under the same terms, the value for `CCOc1cccc(NC(=O)Nc2ccc(C)cc2)c1` [Compound 202, N-(3-ethoxyphenyl)-N′-(4-methylphenyl)urea] was under 2000 nM; that for `CC(=O)c1ccc(NC(=O)Nc2ccc(OC(F)F)cc2)cc1` [Compound 288, N-(4-acetylphenyl)-N′-[4-(difluoromethoxy)phenyl]urea] was under 2000 nM.
For the compound `COCc1ccc(NC(=O)Nc2cccc(C(C)=O)c2)cc1` [Compound 270, N-(3-acetylphenyl)-N′-[4-(methoxymethyl)phenyl]urea], the IC50 was under 2000 nM.
On the same count and under the same terms, the value for `CCCOc1ccc(NC(=O)Nc2ccc(F)cc2)cc1` [Compound 210, N-(4-fluorophenyl)-N′-(4-propoxyphenyl)urea] was under 2000 nM; that for `COc1ccc(NC(=O)Nc2ccc(OC(F)F)cc2)cc1OC` [Compound 92, N-[4-(difluoromethoxy)phenyl]-N′-(3,4-dimethoxyphenyl)urea] was under 2000 nM; that for `O=C(Nc1ccc(OC(F)F)cc1)Nc1ccc2[nH]ncc2c1` [Compound 133] was under 2000 nM.

As a reminder, the IC50 is the concentration that gives 50% inhibition.
